Assay results: patent US20240041976A1, “COMPOSITION AND USE” (priority 2020, published 2024)
Where two headings read alike, the source gives them in different places. No end group written: not given here.

Experiments:
[1] = test system: MRSA ATCC 33591; assay: microbe, parasite or virus in culture; assay type: cell-based, Staphylococcus aureus; conditions: for MIC: Staphylococcus aureus, 24 h, read-out: MIC, single antimicrobial
Protocol: (§1) Antimicrobial activity was measured using the AAMP assay (Wiegand et al., 2008, Nat. Protoc., Vol. 3(2), p 163-175).
(§2) Synergy testing was done with a microtiter plate checkerboard assay as previously described (Orhan et al., 2005, J. Clin. Microbiol., Vol. 43(1), p 140-143). Briefly, equal amounts of antimicrobial A were applied on microtiter plate 1 in wells A1-H1 and then diluted two-fold to wells 2-12. Similarly, equal amounts of antimicrobial B were applied on microtiter plate 2 in wells A1-A12 and diluted two-fold in wells B-H. Volumes of 50 μl of antimicrobial A from each well of microtiter plate 1 were transferred into microtiter plate 3, except for wells H1-H12. Similarly, the same volumes were transferred from microtiter plate 2 into plate 3, except for wells A1-A8. A 100 μl volume of 25 times diluted ON bacterial culture of MRSA was transferred into each well of plate 3. A 50 μl volume of pure broth was added into each well in lines H1-H12 and A1-A8 which were used to estimate MIC values of pure substances (blank).
(§3) Antimicrobial activity was measured using the AAMP assay as described in Example 2.
(§4) Synergy testing was performed as in Example 2.

[2] = test system: MRSA 43484; assay: AAMP assay and checkerboard synergy; assay type: cell-based, Staphylococcus aureus; conditions: for MIC: Staphylococcus aureus, 24 h, read-out: MIC, single antimicrobial
Protocol: as §1, §2
(§5) Three-component synergy was assessed by mixing the three components (100 μg of PenG, 50 μg of GarKS and 2.5 μg of MP1) into one well of a microtiter plate, compared with activity of individual antimicrobials on the same plate. The fractional inhibition concentration (FIC) which was used to define synergy was calculated as set forth in Example 1.

[3] = test system: MRSA USA-300; assay: AAMP assay and checkerboard synergy; assay type: cell-based, Staphylococcus aureus; conditions: for MIC: Staphylococcus aureus, 24 h, read-out: MIC, single antimicrobial
Protocol: as §1, §2, §5

[4] = test system: MRSA ATCC 33591-lux; assay: AAMP assay and checkerboard synergy; assay type: cell-based, Staphylococcus aureus; conditions: for MIC: Staphylococcus aureus, 24 h, read-out: MIC, single antimicrobial
Protocol: as §1, §2, §5

[5] = test system: three MRSA strains (ATCC33591-lux, USA-300 and MRSA 43484); assay: AAMP assay and checkerboard synergy, summary; assay type: cell-based, Staphylococcus aureus; conditions: for MIC: Staphylococcus aureus, 24 h, read-out: MIC, single antimicrobial; for synergy with GarKS: checkerboard assay
Protocol: as §2, with “Briefly,” for “Synergy testing was done with a microtiter plate checkerboard assay as previously described (Orhan et al., 2005, J. Clin. Microbiol., Vol. 43(1), p 140-143). Briefly,”, “A 100 μl volume of 25 times diluted ON bacterial culture of MRSA was transferred into each well of plate 3.” left out
Three-component synergy was assessed by mixing the three components (100 μg of PenG, 50 μg of GarKS and 2.5 μg of MP1) into one well of a microtiter plate, compared with activity of individual antimicrobials on the same plate.

[6] = test system: S. aureus LMG3264; assay: AAMP assay (MIC), single components and formulation mixture; assay type: cell-based, Staphylococcus aureus
Protocol: as §1, §5

[7] = test system: S. aureus LMG3307; assay: as above; assay type: cell-based, Staphylococcus aureus; conditions: Staphylococcus aureus, LMG3307, 24 h; read-out: MIC, single component
Protocol: as §1, §5

[8] = test system: S. aureus LMG3328; assay: as above; assay type: cell-based, Staphylococcus aureus; conditions: Staphylococcus aureus, LMG3328, 24 h; read-out: MIC, single component
Protocol: as §1, §5

[9] = test system: S. aureus LMG3266; assay: as above; assay type: cell-based, Staphylococcus aureus
Protocol: as §1, §5

[10] = test system: S. aureus LMG3242; assay: as above; assay type: cell-based, Staphylococcus aureus
Protocol: as §1, §5

[11] = test system: S. aureus LMG3322; assay: as above; assay type: cell-based, Staphylococcus aureus; conditions: Staphylococcus aureus, LMG3322, 24 h; read-out: MIC, single component
Protocol: as §1, §5

[12] = test system: S. aureus LMG3263; assay: as above; assay type: cell-based, Staphylococcus aureus
Protocol: as §1, §5

[13] = test system: S. aureus LMG3255; assay: as above; assay type: cell-based, Staphylococcus aureus
Protocol: as §1, §5

[14] = test system: S. aureus LMG3026; assay: as above; assay type: cell-based, Staphylococcus aureus; conditions: Staphylococcus aureus, LMG3026, 24 h; read-out: MIC, single component
Protocol: as §1, §5

[15] = test system: S. aureus LMG3271; assay: as above; assay type: cell-based, Staphylococcus aureus; conditions: Staphylococcus aureus, LMG3271, 24 h; read-out: MIC, single component
Protocol: as §1, §5

[16] = test system: S. aureus LMG3314; assay: as above; assay type: cell-based, Staphylococcus aureus; conditions: Staphylococcus aureus, LMG3314, 24 h; read-out: MIC, single component
Protocol: as §1, §5

[17] = test system: S. aureus LMG3258; assay: as above; assay type: cell-based, Staphylococcus aureus; conditions: Staphylococcus aureus, LMG3258, 24 h; read-out: MIC, single component
Protocol: as §1, §5

[18] = test system: S. aureus LMG3265; assay: as above; assay type: cell-based, Staphylococcus aureus; conditions: Staphylococcus aureus, LMG3265, 24 h; read-out: MIC, single component
Protocol: as §1, §5

[19] = test system: S. pseudintermedius MRSP 45; assay: microbe, parasite or virus in culture; assay type: cell-based, Staphylococcus pseudintermedius; conditions: for MIC: Staphylococcus pseudintermedius, read-out: MIC, single component
Protocol: as §1, §2, §3, §4

[20] = Staphylococcus aureus, LMG3264, 24 h; read-out: MIC, single component
[21] = Staphylococcus aureus, LMG3263, 24 h; read-out: MIC, single component
[22] = Staphylococcus aureus, LMG3255, 24 h; read-out: MIC, single component

| Molecule | MIC of MP1 in comb. with the labelled antimicrobial [1] [µg/mL] | MIC of the labelled antimicrobial in comb. with MP1 [1] [µg/mL] | MIC of the antimicrobial in comb. with GarKS ([2]; MRSA 43484) | MIC of the antimicrobial in comb. with GarKS ([3]; MRSA USA-300) | MIC [7] [µg/mL] | MIC [11] [µg/mL] | MIC [14] [µg/mL] | MIC [15] [µg/mL] | MIC [18] [µg/mL] | MIC of the antimicrobial in comb. with GarKS ([4]; MRSA ATCC 33591-lux) [µg/mL] | MIC ([19]; MRSP45, MRSP 45, 24 h, Table 8) [µg/mL] | MIC [1] [µg/mL] | also measured |
| --- | --- | --- | --- | --- | --- | --- | --- | --- | --- | --- | --- | --- | --- |
| C=C(NC(=O)[C@@H](NC(=O)[C@H](Cc1c[nH]cn1)NC(=O)[C@@H](NC(=O)[C@H](CO)NC(=O)[C@@H]1CS[C@@H](C)[C@H]2NC(=O)[C@H](C)NC(=O)[C@H](NC(=O)[C@H](CCCCN)NC(=O)[C@H](CCSC)NC(=O)[C@H](CC(N)=O)NC(=O)[C@@H]3CS[C@@H](C)[C@@H](NC(=O)[C@H](CCCCN)NC(=O)[C@@H]4CS[C@@H](C)[C@@H](NC(=O)[C@@H]5CSC[C@@H](NC(=O)/C(=C/C)NC(=O)[C@@H](N)[C@@H](C)CC)C(=O)N[C@@H]([C@@H](C)CC)C(=O)NC(=C)C(=O)N[C@@H](CC(C)C)C(=O)N5)C(=O)N5CCC[C@H]5C(=O)NCC(=O)N4)C(=O)NCC(=O)N[C@@H](C)C(=O)N[C@@H](CC(C)C)C(=O)N[C@@H](CCSC)C(=O)NCC(=O)N3)[C@H](C)SC[C@H](NC2=O)C(=O)N[C@@H](CC(N)=O)C(=O)N1)[C@@H](C)CC)C(C)C)C(=O)N[C@@H](CCCCN)C(=O)O [nisinZ] | 0.3 | 0.8 |  |  |  |  |  |  |  |  |  |  | MIC, single antimicrobial [1]: >12.5 µg/mL |
| NC[C@H]1O[C@H](O[C@H]2[C@H](O)[C@@H](O[C@H]3O[C@H](CO)[C@@H](O)[C@H](N)[C@H]3O)[C@H](N)C[C@@H]2N)[C@H](O)[C@@H](O)[C@@H]1O [Kan, Kanamycin] |  |  | 32/32 μg/ml | 32/32 μg/ml | 64 | 64 | 16 | 64 | 64 |  |  |  | MIC ([2]; MRSA): > 125 µg/mL; MIC ([3]; MRSA): > 125 µg/mL; MIC ([4]; MRSA ATCC 33591-lux): > 125 µg/mL; MIC, single antimicrobial ([5]; All three strains): >125 µg/mL; MIC ([5]; All three strains): > 125 µg/mL; MIC ([6]; Staphylococcus aureus, LMG3264, 24 h, read-out: MIC, single component): > 125 µg/mL; MIC [8]: 32 µg/mL; MIC ([9]; Staphylococcus aureus, LMG3266, 24 h, read-out: MIC, single component): > 125 µg/mL; MIC ([10]; Staphylococcus aureus, LMG3242, 24 h, read-out: MIC, single component): > 125 µg/mL; MIC ([12]; Staphylococcus aureus, LMG3263, 24 h, read-out: MIC, single component): > 125 µg/mL; MIC ([13]; Staphylococcus aureus, LMG3255, 24 h, read-out: MIC, single component): > 125 µg/mL; MIC [16]: 64 µg/mL; MIC [17]: 125 µg/mL; MIC ([19]; MRSP45, 24 h): > 1250 µg/mL |
| [H]/N=C(/N)N[C@H]1[C@H](O)[C@@H](O)[C@H](O[C@@H]2O[C@@H](C)[C@](O)(C=O)[C@H]2O[C@@H]2O[C@@H](CO)[C@H](O)[C@@H](O)[C@@H]2NC)[C@@H](N/C(N)=N\[H])[C@@H]1O [Str, Streptomycin] |  |  | 32 µg/mL | 32 µg/mL | 62 | 62 | 31 | 125 | 31 | 32 | > 2500 |  | MIC ([2]; MRSA 43484): 62 µg/mL; MIC ([3]; MRSA USA-300): 62 µg/mL; MIC, single antimicrobial ([4]; MRSA ATCC 33591-lux): >2500 µg/mL; MIC ([4]; MRSA ATCC 33591-lux): > 2500 µg/mL; MIC of the antimicrobial in comb. with GarKS ([5]; All three strains): 32 µg/mL; synergy with GarKS [5]: moderate synergy with GarKS only against two MRSA out of three; MIC [6, 20]: > 250 µg/mL; MIC [8]: 62 µg/mL; MIC ([9]; Staphylococcus aureus, LMG3266, 24 h; read-out: MIC, single component): > 125 µg/mL; MIC ([10]; Staphylococcus aureus, LMG3242, 24 h; read-out: MIC, single component): 250 µg/mL; MIC [12, 21]: 31 µg/mL; MIC [13, 22]: 125 µg/mL; MIC [16]: 62 µg/mL; MIC [17]: 62 µg/mL |
| CC(=O)O[C@H]1C[C@@]2(C)[C@@H](C[C@@H](O)[C@H]3[C@@]4(C)CC[C@@H](O)[C@@H](C)[C@@H]4CC[C@@]32C)/C1=C(\CCC=C(C)C)C(=O)O [Fusidic acid] | 0.15 | 0.04 |  |  |  |  |  |  |  |  | 1.25 | 0.6 |  |
| CC1(C)S[C@@H]2[C@H](NC(=O)[C@H](N)c3ccccc3)C(=O)N2[C@H]1C(=O)O [Amp, Ampicillin] |  |  | 16 µg/mL | 16 µg/mL |  |  |  |  |  | 16 |  |  | MIC ([2]; MRSA 43484): < 2500 µg/mL; MIC ([3]; MRSA USA-300): < 2500 µg/mL; MIC [4]: < 2500 µg/mL; MIC of the antimicrobial in comb. with GarKS ([5]; All three strains): 16 µg/mL; MIC of the component when combined ([5]; GarKS with Amp or PenG): 16 µg/mL; MIC ([5]; All three strains): > 2500 µg/mL; synergy with GarKS [5]: moderate synergy |
| CN(C)[C@@H]1C(O)=C(C(N)=O)C(=O)[C@@]2(O)C(O)=C3C(=O)c4c(O)cccc4[C@@](C)(O)[C@H]3C[C@@H]12 [Tet, Tetracycline] | 0.08 | 10 | 0.6 µg/mL | 0.6 µg/mL | 0.6 | < 0.3 | 77 | 2.4 | 2.4 | 38 | 150 | 150 | MIC [6, 20]: 2.4 µg/mL; MIC [12, 21]: 2.4 µg/mL; MIC [13, 22]: 2.4 µg/mL |
| MIKKFPNPYTLAAKLTTYEINWYKQQYGRYPWERPVA [EJ97 short] |  |  |  |  |  |  |  |  |  |  |  |  | MIC, single component ([19]; 24 h): >25 µg/mL |
| CC(C)=CCCC(C)=CCCC(C)=CCO [Farnesol] | 0.08 | 14 |  |  |  |  |  |  |  |  |  | 56 |  |
